From patent US20100144755A1 (Glaxo Group Limited, priority 2006, published 2010)
Where a name gives a salt, the structure may show the parent alone.

tested on: influx of neutrophils to the lung in LPS-challenged rats; experiment: Rat LPS neutrophilia model; format: in vivo; conditions: LPS aerosol, intratracheal dosing, in at least one of the range of conditions tested, significance p<0.05
Description: Rat LPS Neutrophilia Model
The effect of compounds on the influx of neutrophils to the lung in LPS-challenged rats is evaluated as follows. The test compound is suspended in one of the following solutions: 0.5% tween 80/PBS, 0.5% tween 80/saline, 10% EtOH/saline (with pH adjusted to 2.0, or 8.0 with HCl, or unadjusted), Saline @pH 2.0, 6.5 or 8.0, 0.5% Tragacanth, 1% DMSO/20% Encapsin/Saline, or acidified 5% Tragacanth. The suspension process may be aided by the use of a glass homogenizer. For intratracheal administration, the animals are anesthetized with inhaled isoflurane and placed in a supine position, the trachea is intubated with a steel gavage needle (1.5 inch, 22 gauge, small ball) or a Penn-Century Microsprayer Aerosolizer (model IA-1B) and 200 ul of dosing solution is delivered. The animals are visually monitored during the recovery process, which typically occurs within two minutes. It is noted that the test compounds may be alternatively administered via the microsprayer in a dry powder blend with a suitable excipient, such as lactose.
Rats treated with compound or vehicle (15 min-24 hours pretreatment) are exposed to an LPS aerosol (100 ug/ml) for 15 min. Four hours later the rats are euthanized with pentobarbital (100 mg/kg, i.p.) and the airways are lavaged with 5 washes of 5 ml of phosphate buffered saline. The harvested cells are stained (Diffquick) and counted to determine total and differential cell data. […] Inhibition of neutrophil levels relative to no compound controls is calculated based on the differential counts.
The data is obtained as % inhibition using a particular concentration and pretreat time.

| Structure (SMILES) | inhibition of neutrophilia |
| --- | --- |
| CCN(CC)CCCNc1nc(-c2cc(C(=O)NC3CCC3)ccc2C)c2ccc(=O)n(-c3c(F)cccc3F)c2n1 [Example 137, N-cyclobutyl-3-[2-{[3-(diethylamino)propyl]amino}-8-(2,6-difluorophenyl)-7-oxo-7,8-dihydropyrido[2,3-d]pyrimidin-4-yl]-4-methylbenzamide trifluoroacetate] | statistically significant inhibition |
| Cc1ccc(C(=O)NCCc2ccccc2)cc1-c1nc(NC2CC(C)(C)NC(C)(C)C2)nc2c1ccc(=O)n2-c1c(F)cccc1F [Example 28, 3-{8-(2,6-difluorophenyl)-7-oxo-2-[(2,2,6,6-tetramethyl-4-piperidinyl)amino]-7,8-dihydropyrido[2,3-d]pyrimidin-4-yl}-4-methyl-N-(2-phenylethyl)benzamide] | statistically nonsignificant inhibition |
| CNCCNc1nc(-c2cc(C(=O)Nc3ccc(F)cc3)ccc2C)c2ccc(=O)n(-c3c(F)cccc3F)c2n1 [Example 60, 3-(8-(2,6-difluorophenyl)-2-{[2-(methylamino)ethyl]amino}-7-oxo-7,8-dihydropyrido[2,3-d]pyrimidin-4-yl)-N-(4-fluorophenyl)-4-methylbenzamide] | statistically significant inhibition |
| Cc1ccc(C(=O)NC2CC2)cc1-c1nc(N2CCC(N)CC2)nc2c1ccc(=O)n2-c1c(F)cccc1F [Example 22, 3-[2-(4-amino-1-piperidinyl)-8-(2,6-difluorophenyl)-7-oxo-7,8-dihydropyrido[2,3-d]pyrimidin-4-yl]-N-cyclopropyl-4-methylbenzamide] | statistically significant inhibition |
| Cc1ccc(C(=O)NCC(F)(F)F)cc1-c1nc(N2CCC(N3CCC(C)CC3)CC2)nc2c1ccc(=O)n2-c1c(F)cccc1F [Example 172, 3-[8-(2,6-difluorophenyl)-2-(4-methyl-1,4′-bipiperidin-1′-yl)-7-oxo-7,8-dihydropyrido[2,3-d]pyrimidin-4-yl]-4-methyl-N-(2,2,2-trifluoroethyl)benzamide] | inactive |
| CCN(CC)CCCNc1nc(-c2cc(C(=O)NCC(F)(F)F)ccc2C)c2ccc(=O)n(-c3c(F)cccc3F)c2n1 [Example 128, 3-[2-{[3-(diethylamino)propyl]amino}-8-(2,6-difluorophenyl)-7-oxo-7,8-dihydropyrido[2,3-d]pyrimidin-4-yl]-4-methyl-N-(2,2,2-trifluoroethyl)benzamide] | inactive |
| Cc1ccc(NC(=O)c2ccsc2)cc1-c1nc(NC2CC(C)(C)NC(C)(C)C2)nc2c1ccc(=O)n2-c1c(F)cccc1F [31(e), N-(3-{8-(2,6-difluorophenyl)-7-oxo-2-[(2,2,6,6-tetramethyl-4-piperidinyl)amino]-7,8-dihydropyrido[2,3-d]pyrimidin-4-yl}-4-methylphenyl)-3-thiophenecarboxamide] | statistically significant inhibition |
| CCNC(=O)c1ccc(C)c(-c2nc(NCCCN(CC)CC)nc3c2ccc(=O)n3-c2c(F)cccc2F)c1 [Example 129, 3-[2-{[3-(diethylamino)propyl]amino}-8-(2,6-difluorophenyl)-7-oxo-7,8-dihydropyrido[2,3-d]pyrimidin-4-yl]-N-ethyl-4-methylbenzamide] | statistically nonsignificant inhibition |
| CCN(CC)CCCNc1nc(-c2cc(C(=O)NC3CC3)cc(F)c2C)c2ccc(=O)n(-c3c(F)cccc3F)c2n1 [Example 185, N-cyclopropyl-3-[2-{[3-(diethylamino)propyl]amino}-8-(2,6-difluorophenyl)-7-oxo-7,8-dihydropyrido[2,3-d]pyrimidin-4-yl]-5-fluoro-4-methylbenzamide] | statistically nonsignificant inhibition |
| CCN(CC)CCCNc1nc(-c2cc(C(=O)NC(C)C)ccc2C)c2ccc(=O)n(-c3c(F)cccc3F)c2n1 [118(b), 3-[2-{[3-(diethylamino)propyl]amino}-8-(2,6-difluorophenyl)-7-oxo-7,8-dihydropyrido[2,3-d]pyrimidin-4-yl]-4-methyl-N-(1-methylethyl)benzamide] | statistically nonsignificant inhibition |
| CCCNC(=O)c1ccc(C)c(-c2nc(NCCNC)nc3c2ccc(=O)n3-c2c(F)cccc2F)c1 [56(d), 3-(8-(2,6-difluorophenyl)-2-{[2-(methylamino)ethyl]amino}-7-oxo-7,8-dihydropyrido[2,3-d]pyrimidin-4-yl)-4-methyl-N-propylbenzamide] | statistically significant inhibition |
| CNCCNc1nc(-c2cc(C(=O)NCc3ccccc3)ccc2C)c2ccc(=O)n(-c3c(F)cccc3F)c2n1 [Example 59, 3-(8-(2,6-difluorophenyl)-2-{[2-(methylamino)ethyl]amino}-7-oxo-7,8-dihydropyrido[2,3-d]pyrimidin-4-yl)-4-methyl-N-(phenylmethyl)benzamide] | statistically significant inhibition |
| Cc1ccc(C(=O)Nc2ccc(F)cc2)cc1-c1nc(NCc2ncc[nH]2)nc2c1ccc(=O)n2-c1c(F)cccc1F [Example 78, 3-{8-(2,6-difluorophenyl)-2-[(1H-imidazol-2-ylmethyl)amino]-7-oxo-7,8-dihydropyrido[2,3-d]pyrimidin-4-yl}-N-(4-fluorophenyl)-4-methylbenzamide] | statistically significant inhibition |
| Cc1ccc(C(=O)NC(C)C)cc1-c1nc(N2CCC(N)CC2)nc2c1ccc(=O)n2-c1c(F)cccc1F [Example 68, 3-[2-(4-amino-1-piperidinyl)-8-(2,6-difluorophenyl)-7-oxo-7,8-dihydropyrido[2,3-d]pyrimidin-4-yl]-4-methyl-N-(1-methylethyl)benzamide] | statistically significant inhibition |
| Cc1ccc(C(=O)Nc2nccs2)cc1-c1nc(NC2CC(C)(C)NC(C)(C)C2)nc2c1ccc(=O)n2-c1c(F)cccc1F [Example 67, 3-{8-(2,6-difluorophenyl)-7-oxo-2-[(2,2,6,6-tetramethyl-4-piperidinyl)amino]-7,8-dihydropyrido[2,3-d]pyrimidin-4-yl}-4-methyl-N-1,3-thiazol-2-ylbenzamide] | statistically nonsignificant inhibition |
| Cc1ccc(C(=O)NC2CC2)cc1-c1nc(NCc2ncc[nH]2)nc2c1ccc(=O)n2-c1c(F)cccc1F [Example 23, N-cyclopropyl-3-{8-(2,6-difluorophenyl)-2-[(1H-imidazol-2-ylmethyl)amino]-7-oxo-7,8-dihydropyrido[2,3-d]pyrimidin-4-yl}-4-methylbenzamide] | statistically nonsignificant inhibition |
| Cc1ccc(C(=O)Nc2ccc(F)cc2)cc1-c1nc(NCCN(C)C)nc2c1ccc(=O)n2-c1c(F)cccc1F [Example 112, 3-(8-(2,6-difluorophenyl)-2-{[2-(dimethylamino)ethyl]amino}-7-oxo-7,8-dihydropyrido[2,3-d]pyrimidin-4-yl)-N-(4-fluorophenyl)-4-methylbenzamide] | statistically nonsignificant inhibition |
| CNCCNc1nc(-c2cc(C(=O)Nc3nccs3)ccc2C)c2ccc(=O)n(-c3c(F)cccc3F)c2n1 [Example 61, 3-(8-(2,6-difluorophenyl)-2-{[2-(methylamino)ethyl]amino}-7-oxo-7,8-dihydropyrido[2,3-d]pyrimidin-4-yl)-4-methyl-N-1,3-thiazol-2-ylbenzamide] | statistically significant inhibition |
| CCN(CC)CCCNc1nc(-c2cc(C(=O)NCC(C)C)ccc2C)c2ccc(=O)n(-c3c(F)cccc3F)c2n1 [Example 124, 3-[2-{[3-(diethylamino)propyl]amino}-8-(2,6-difluorophenyl)-7-oxo-7,8-dihydropyrido[2,3-d]pyrimidin-4-yl]-4-methyl-N-(2-methylpropyl)benzamide] | statistically significant inhibition |
| Cc1ccc(C(=O)NCc2ccccc2)cc1-c1nc(N2CCC(N)CC2)nc2c1ccc(=O)n2-c1c(F)cccc1F [Example 71, 3-[2-(4-amino-1-piperidinyl)-8-(2,6-difluorophenyl)-7-oxo-7,8-dihydropyrido[2,3-d]pyrimidin-4-yl]-4-methyl-N-(phenylmethyl)benzamide] | statistically nonsignificant inhibition |
| Cc1ccc(C(=O)NC(C)C)cc1-c1nc(N2CCC(N3CCC(C)CC3)CC2)nc2c1ccc(=O)n2-c1c(F)cccc1F [163(c), 3-[8-(2,6-difluorophenyl)-2-(4-methyl-1,4′-bipiperidin-1′-yl)-7-oxo-7,8-dihydropyrido[2,3-d]pyrimidin-4-yl]-4-methyl-N-(1-methylethyl)benzamide] | statistically nonsignificant inhibition |
| Cc1ccc(C(=O)NC2CCCC2)cc1-c1nc(N2CCC(N3CCC(C)CC3)CC2)nc2c1ccc(=O)n2-c1c(F)cccc1F [Example 169, N-cyclopentyl-3-[8-(2,6-difluorophenyl)-2-(4-methyl-1,4′-bipiperidin-1′-yl)-7-oxo-7,8-dihydropyrido[2,3-d]pyrimidin-4-yl]-4-methylbenzamide] | statistically nonsignificant inhibition |
